Tested on: 885512-296-R-J2-PDC complex spheroid viability
Assay: Anticancer human tumor 885512-296-R-J2-PDC patient-derived breast carcinoma cell line growth inhibition
Settings: for IC50: curve of first compound; for viability, T/C: stronger effect = lower value
Summary of the method: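 Complex spheroids of tumor cells with HUVEC and human MSCs, exposed to iadademstat combined with other agents. Each agent tested in half-log steps from near clinical Cmax (else 10 microM top), DMSO ≤0.25%.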

[1] = second compound 0.1 µM, first compound 0.00949 µM
[2] = second compound 0.1 µM, first compound 0.03 µM
[3] = second compound 0.1 µM, first compound 0.0949 µM
[4] = second compound 0.1 µM, first compound 0.3 µM
[5] = second compound 0.316 µM, first compound 0.00949 µM
[6] = second compound 0.316 µM, first compound 0.03 µM
[7] = second compound 0.316 µM, first compound 0.0949 µM
[8] = second compound 0.316 µM, first compound 0.3 µM
[9] = second compound 1 µM, first compound 0.00949 µM
[10] = second compound 1 µM, first compound 0.03 µM
[11] = second compound 1 µM, first compound 0.0949 µM
[12] = second compound 1 µM, first compound 0.3 µM
[13] = second compound 3.16 µM, first compound 0.00949 µM
[14] = second compound 3.16 µM, first compound 0.03 µM
[15] = second compound 3.16 µM, first compound 0.0949 µM
[16] = second compound 3.16 µM, first compound 0.3 µM
[17] = second compound 10 µM, first compound 0.00949 µM
[18] = second compound 10 µM, first compound 0.03 µM
[19] = second compound 10 µM, first compound 0.0949 µM
[20] = second compound 10 µM, first compound 0.3 µM
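Also: spheroids exposed to agents for 7 days before viability read.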

CCN(c1cc(-c2ccc(CN3CCOCC3)cc2)cc(C(=O)NCc2c(C)cc(C)[nH]c2=O)c1C)C1CCOCC1 + NC1CCC(NC2CC2c2ccccc2)CC1
IC50 (second compound 0.1 µM): 1820 nM
IC50 (second compound 0.316 µM): 1740 nM
IC50 (second compound 1 µM): 2250 nM
IC50 (second compound 3.16 µM): 2080 nM
IC50 (second compound 10 µM): > 3000 nM
viability, T/C [1]: 118%
viability, T/C [2]: 135%
viability, T/C [3]: 104%
viability, T/C [4]: 117%
viability, T/C (second compound 0.1 µM, first compound 0.949 µM): 98.6%
viability, T/C (second compound 0.1 µM, first compound 3 µM): 12.3%
viability, T/C [5]: 131%
viability, T/C [6]: 114%
viability, T/C [7]: 127%
viability, T/C [8]: 94.5%
viability, T/C (second compound 0.316 µM, first compound 0.949 µM): 79.1%
viability, T/C (second compound 0.316 µM, first compound 3 µM): 26.1%
viability, T/C [9]: 135%
viability, T/C [10]: 107%
viability, T/C [11]: 122%
viability, T/C [12]: 87.2%
viability, T/C (second compound 1 µM, first compound 0.949 µM): 80.2%
viability, T/C (second compound 1 µM, first compound 3 µM): 39.9%
viability, T/C [13]: 141%
viability, T/C [14]: 125%
viability, T/C [15]: 106%
viability, T/C [16]: 102%
viability, T/C (second compound 3.16 µM, first compound 0.949 µM): 78.3%
viability, T/C (second compound 3.16 µM, first compound 3 µM): 35.8%
viability, T/C [17]: 110%
viability, T/C [18]: 95.4%
viability, T/C [19]: 85.8%
viability, T/C [20]: 82.7%
viability, T/C (second compound 10 µM, first compound 0.949 µM): 78.5%
viability, T/C (second compound 10 µM, first compound 3 µM): 55%

Nc1ncn(C2CC(O)C(CO)S2)c(=O)n1 (stereo not given) + NC1CCC(NC2CC2c2ccccc2)CC1
IC50 (second compound 0.1 µM): 5.37 nM
IC50 (second compound 0.316 µM): 4.73 nM
IC50 (second compound 1 µM): 4.84 nM
IC50 (second compound 3.16 µM): 4.82 nM
IC50 (second compound 10 µM): 2.75 nM
viability, T/C (second compound 0.1 µM, first compound 0.000949 µM): 81.1%
viability, T/C (second compound 0.1 µM, first compound 0.003 µM): 67.9%
viability, T/C [1]: 32.5%
viability, T/C [2]: 15.5%
viability, T/C [3]: 12.6%
viability, T/C [4]: 11.3%
viability, T/C (second compound 0.316 µM, first compound 0.000949 µM): 93%
viability, T/C (second compound 0.316 µM, first compound 0.003 µM): 59%
viability, T/C [5]: 36.4%
viability, T/C [6]: 20.6%
viability, T/C [7]: 12.4%
viability, T/C [8]: 10%
viability, T/C (second compound 1 µM, first compound 0.000949 µM): 99.2%
viability, T/C (second compound 1 µM, first compound 0.003 µM): 62.2%
viability, T/C [9]: 32.8%
viability, T/C [10]: 17.3%
viability, T/C [11]: 11.5%
viability, T/C [12]: 6.83%
viability, T/C (second compound 3.16 µM, first compound 0.000949 µM): 83%
viability, T/C (second compound 3.16 µM, first compound 0.003 µM): 61.6%
viability, T/C [13]: 33.3%
viability, T/C [14]: 18.8%
viability, T/C [15]: 12.4%
viability, T/C [16]: 8.51%
viability, T/C (second compound 10 µM, first compound 0.000949 µM): 79.8%
viability, T/C (second compound 10 µM, first compound 0.003 µM): 47.5%
viability, T/C [17]: 23.8%
viability, T/C [18]: 11.2%
viability, T/C [19]: 9.62%
viability, T/C [20]: 6.05%

O=C(C=Cn1cnc(-c2cc(C(F)(F)F)cc(C(F)(F)F)c2)n1)NNc1cnccn1 + NC1CCC(NC2CC2c2ccccc2)CC1
IC50 (second compound 0.1 µM): < 3.16 nM
IC50 (second compound 0.316 µM): < 3.16 nM
IC50 (second compound 1 µM): < 3.16 nM
IC50 (second compound 3.16 µM): < 3.16 nM
IC50 (second compound 10 µM): < 3.16 nM
viability, T/C (second compound 0.1 µM, first compound 0.00316 µM): 34%
viability, T/C (second compound 0.1 µM, first compound 0.01 µM): 7.13%
viability, T/C (second compound 0.1 µM, first compound 0.0316 µM): 7%
viability, T/C (second compound 0.1 µM, first compound 0.1 µM): 5.05%
viability, T/C (second compound 0.1 µM, first compound 0.316 µM): 5.84%
viability, T/C (second compound 0.1 µM, first compound 1 µM): 8.68%
viability, T/C (second compound 0.316 µM, first compound 0.00316 µM): 36.5%
viability, T/C (second compound 0.316 µM, first compound 0.01 µM): 6.98%
viability, T/C (second compound 0.316 µM, first compound 0.0316 µM): 4.07%
viability, T/C (second compound 0.316 µM, first compound 0.1 µM): 1.21%
viability, T/C (second compound 0.316 µM, first compound 0.316 µM): 8.2%
viability, T/C (second compound 0.316 µM, first compound 1 µM): 6.75%
viability, T/C (second compound 1 µM, first compound 0.00316 µM): 47.5%
viability, T/C (second compound 1 µM, first compound 0.01 µM): 6.6%
viability, T/C (second compound 1 µM, first compound 0.0316 µM): 1.46%
viability, T/C (second compound 1 µM, first compound 0.1 µM): 1.03%
viability, T/C (second compound 1 µM, first compound 0.316 µM): 3.55%
viability, T/C (second compound 1 µM, first compound 1 µM): 0.74%
viability, T/C (second compound 3.16 µM, first compound 0.00316 µM): 26.8%
viability, T/C (second compound 3.16 µM, first compound 0.01 µM): 6.99%
viability, T/C (second compound 3.16 µM, first compound 0.0316 µM): 1.67%
viability, T/C (second compound 3.16 µM, first compound 0.1 µM): 0.99%
viability, T/C (second compound 3.16 µM, first compound 0.316 µM): 0.76%
viability, T/C (second compound 3.16 µM, first compound 1 µM): 3.58%
viability, T/C (second compound 10 µM, first compound 0.00316 µM): 26.8%
viability, T/C (second compound 10 µM, first compound 0.01 µM): 7.4%
viability, T/C (second compound 10 µM, first compound 0.0316 µM): 1.17%
viability, T/C (second compound 10 µM, first compound 0.1 µM): 0.87%
viability, T/C (second compound 10 µM, first compound 0.316 µM): 2.75%
viability, T/C (second compound 10 µM, first compound 1 µM): 0.69%

— PubChem BioAssay AID1918946 (Molecular Pharmacology Branch, DTP, NCI, 2023)
